Assay results taken from ChEMBL document CHEMBL1201862, “PubChem BioAssay data set” (2004).
Blank lines part the entries; values can stand above or below the molecule they belong to. Calls of active or inactive are those of the source.

Assays:
[1] = target: Dual specificity protein phosphatase 6 (Rattus norvegicus, UniProt Q64346); assay: inhibition of rat DUSP6 enzyme activity – biochemical, in vitro, primary screen (AID 425)
Bcl-2-related protein A1 [2] = target: T1, Bcl-2-related protein A1 (Mus musculus, UniProt Q07440); assay: small-molecule antagonists of Bfl-1/BH3 interaction – biochemical, TR-FRET, mouse Bfl-1, confirmation (AID 621);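 further: TR-FRET binding of GST-Bfl-1 to FITC-labelled Bid peptide via terbium antibody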
T1 sequence (Q07440 whole entry): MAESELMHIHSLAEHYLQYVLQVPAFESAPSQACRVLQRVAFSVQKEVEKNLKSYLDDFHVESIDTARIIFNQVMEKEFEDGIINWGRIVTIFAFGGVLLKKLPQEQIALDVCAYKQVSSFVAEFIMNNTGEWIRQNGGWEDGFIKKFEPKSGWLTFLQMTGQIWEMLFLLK

Bcl-2-related protein A1 [3] = target: T1, Bcl-2-related protein A1; assay: Bfl-1 binding inhibitors, SAR follow-up, biochemical, fluorescence polarization (AID 1070)
[4] = target: T2, RNA-binding protein pos-1 (Caenorhabditis elegans, UniProt G5EF15); assay: disruptors of C. elegans POS-1 RNA interaction – biochemical, fluorescence polarization, dose response (AID 1964);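 further: purified POS-1 fused to maltose binding protein made in E. coli; potency of compounds blocking POS-1 binding to fluorescent RNA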
T2 sequence (G5EF15 whole entry): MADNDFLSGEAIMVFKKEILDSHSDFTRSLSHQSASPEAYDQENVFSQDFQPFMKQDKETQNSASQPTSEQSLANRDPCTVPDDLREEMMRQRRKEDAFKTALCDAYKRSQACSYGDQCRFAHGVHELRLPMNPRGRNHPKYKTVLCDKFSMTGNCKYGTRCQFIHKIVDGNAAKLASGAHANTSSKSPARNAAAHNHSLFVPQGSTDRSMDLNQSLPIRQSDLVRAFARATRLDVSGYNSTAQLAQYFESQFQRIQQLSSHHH

[5] = antibacterial activity against E. coli NEB5alpha – luminescence, counter-screen for MEX-5/POS-1 RNA-binding inhibitor project, dose response (AID 1959); format: functional
[6] = target: T3, Zinc finger protein mex-5 (Caenorhabditis elegans, UniProt Q9XUB2); assay: potency of MEX-5 RNA-binding blockers – biochemical, C. elegans, fluorescence polarization, dose response (AID 1960)
T3 sequence (Q9XUB2 whole entry): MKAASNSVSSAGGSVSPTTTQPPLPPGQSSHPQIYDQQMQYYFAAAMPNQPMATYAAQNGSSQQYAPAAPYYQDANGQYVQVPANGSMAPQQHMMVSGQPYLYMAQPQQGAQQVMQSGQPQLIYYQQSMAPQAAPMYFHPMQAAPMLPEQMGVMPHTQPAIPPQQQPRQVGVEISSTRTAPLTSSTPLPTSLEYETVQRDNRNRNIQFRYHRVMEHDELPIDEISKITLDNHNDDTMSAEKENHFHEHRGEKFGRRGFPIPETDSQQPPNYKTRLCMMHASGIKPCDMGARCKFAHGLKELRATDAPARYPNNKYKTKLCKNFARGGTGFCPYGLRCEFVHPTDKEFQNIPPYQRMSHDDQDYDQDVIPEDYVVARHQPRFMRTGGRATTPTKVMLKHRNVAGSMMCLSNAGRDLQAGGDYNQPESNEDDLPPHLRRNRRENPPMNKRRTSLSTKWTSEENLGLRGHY

Leucine aminopeptidase = target: T4, Leucine aminopeptidase (Plasmodium falciparum 3D7, UniProt Q8IL11); assay: P. falciparum M17LAP inhibitors, primary screen, biochemical, fluorogenic H-Leu-NHMec substrate, 1536-well (AID 1619); format: functional
T4 sequence (Q8IL11 whole entry): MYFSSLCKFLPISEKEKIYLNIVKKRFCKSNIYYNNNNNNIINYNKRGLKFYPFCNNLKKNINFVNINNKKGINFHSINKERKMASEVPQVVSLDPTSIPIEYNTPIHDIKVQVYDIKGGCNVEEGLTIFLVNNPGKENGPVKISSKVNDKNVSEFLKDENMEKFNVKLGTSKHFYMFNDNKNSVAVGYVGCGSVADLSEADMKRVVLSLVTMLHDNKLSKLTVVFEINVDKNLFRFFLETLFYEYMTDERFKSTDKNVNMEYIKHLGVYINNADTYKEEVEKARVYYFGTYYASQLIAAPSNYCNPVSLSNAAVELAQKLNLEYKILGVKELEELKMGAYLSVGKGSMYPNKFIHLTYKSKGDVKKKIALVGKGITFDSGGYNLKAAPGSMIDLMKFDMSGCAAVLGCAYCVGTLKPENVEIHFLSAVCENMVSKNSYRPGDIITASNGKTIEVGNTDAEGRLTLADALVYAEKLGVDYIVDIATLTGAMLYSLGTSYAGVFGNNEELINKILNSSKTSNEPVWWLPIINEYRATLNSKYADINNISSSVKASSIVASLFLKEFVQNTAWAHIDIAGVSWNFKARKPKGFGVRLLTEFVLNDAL

Protein skinhead-1 = target: T5, Protein skinhead-1 (Caenorhabditis elegans, UniProt P34707); format: functional
T5 sequence (P34707 whole entry): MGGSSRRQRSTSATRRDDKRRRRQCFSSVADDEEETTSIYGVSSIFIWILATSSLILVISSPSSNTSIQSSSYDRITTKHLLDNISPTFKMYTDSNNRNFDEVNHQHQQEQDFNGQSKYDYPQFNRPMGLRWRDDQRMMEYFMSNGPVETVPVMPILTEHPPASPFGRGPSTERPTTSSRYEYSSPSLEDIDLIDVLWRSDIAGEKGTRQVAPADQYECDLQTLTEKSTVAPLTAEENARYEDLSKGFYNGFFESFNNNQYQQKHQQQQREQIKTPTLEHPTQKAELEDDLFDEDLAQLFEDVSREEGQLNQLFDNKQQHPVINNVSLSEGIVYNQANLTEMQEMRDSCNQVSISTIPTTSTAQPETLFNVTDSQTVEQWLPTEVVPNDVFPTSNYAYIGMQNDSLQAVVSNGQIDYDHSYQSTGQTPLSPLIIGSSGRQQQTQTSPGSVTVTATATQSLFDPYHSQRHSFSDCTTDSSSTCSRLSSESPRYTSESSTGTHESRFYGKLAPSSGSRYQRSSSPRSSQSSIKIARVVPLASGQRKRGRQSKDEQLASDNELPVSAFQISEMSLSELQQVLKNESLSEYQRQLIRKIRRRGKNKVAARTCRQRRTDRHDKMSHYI

Procathepsin L = Procathepsin L (Homo sapiens, UniProt P07711); assay: CTSL1 protease inhibition – biochemical, QFRET, 1536-well, counter-screen for M1/M17 aminopeptidase inhibitor project, dose response (AID 2214)
Chain of Procathepsin L (P07711 whole entry): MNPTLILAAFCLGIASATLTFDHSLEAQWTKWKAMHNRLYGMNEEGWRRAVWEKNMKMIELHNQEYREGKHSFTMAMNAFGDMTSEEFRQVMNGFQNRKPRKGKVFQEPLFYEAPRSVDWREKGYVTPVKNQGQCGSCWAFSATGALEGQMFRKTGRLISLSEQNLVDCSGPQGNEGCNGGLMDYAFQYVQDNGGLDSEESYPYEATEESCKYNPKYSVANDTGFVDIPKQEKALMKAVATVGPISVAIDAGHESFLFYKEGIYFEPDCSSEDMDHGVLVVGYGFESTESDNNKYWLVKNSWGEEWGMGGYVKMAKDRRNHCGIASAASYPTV

Aspartyl aminopeptidase = target: T6, Aspartyl aminopeptidase (Plasmodium falciparum 3D7, UniProt Q8I2J3); assay: Counterscreen for inhibitors of M1 and M17 aminopeptidases: QFRET-based biochemical high throughput dose response assay for inhibitors of the Plasmodium falciparum M18 Aspartyl Aminopeptidase (PFM18AAP). [Related PubChem assays: 1619 (Screening assay (M17LAP inhibitors).), 1445 (Screening assay (M1AAP inhibitors).)]
T6 sequence (Q8I2J3 whole entry): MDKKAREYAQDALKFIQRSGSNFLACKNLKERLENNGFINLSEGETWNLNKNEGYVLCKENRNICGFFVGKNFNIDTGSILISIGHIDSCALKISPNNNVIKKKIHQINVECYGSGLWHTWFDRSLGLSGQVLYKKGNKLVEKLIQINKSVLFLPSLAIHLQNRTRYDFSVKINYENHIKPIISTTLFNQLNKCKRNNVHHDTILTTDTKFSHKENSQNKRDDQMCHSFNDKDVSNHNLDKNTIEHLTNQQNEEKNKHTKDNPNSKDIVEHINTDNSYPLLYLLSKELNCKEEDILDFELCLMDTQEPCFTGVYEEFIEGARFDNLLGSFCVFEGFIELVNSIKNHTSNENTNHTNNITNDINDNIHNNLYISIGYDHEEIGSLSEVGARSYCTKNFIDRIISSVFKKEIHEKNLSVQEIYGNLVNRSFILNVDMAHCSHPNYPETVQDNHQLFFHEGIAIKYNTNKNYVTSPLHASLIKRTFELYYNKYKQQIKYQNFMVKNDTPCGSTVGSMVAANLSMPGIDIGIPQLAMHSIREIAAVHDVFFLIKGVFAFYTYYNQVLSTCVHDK

Prothrombin = Prothrombin (Homo sapiens, UniProt P00734); assay: Thrombin 1536 HTS Dose Response Confirmation. [Related pubchem assays: 1046 (Thrombin 1536 HTS; hits were confirmed in this assay)]; format: functional
Cytochrome P450 2C19 = Cytochrome P450 2C19 (Homo sapiens, UniProt P33261); assay: qHTS Assay for Inhibitors and Substrates of Cytochrome P450 2C19. [Related pubchem assays: 410 ]; format: ADME; conditions: read-out: Potency
Chain of Cytochrome P450 2C19 (P33261 whole entry): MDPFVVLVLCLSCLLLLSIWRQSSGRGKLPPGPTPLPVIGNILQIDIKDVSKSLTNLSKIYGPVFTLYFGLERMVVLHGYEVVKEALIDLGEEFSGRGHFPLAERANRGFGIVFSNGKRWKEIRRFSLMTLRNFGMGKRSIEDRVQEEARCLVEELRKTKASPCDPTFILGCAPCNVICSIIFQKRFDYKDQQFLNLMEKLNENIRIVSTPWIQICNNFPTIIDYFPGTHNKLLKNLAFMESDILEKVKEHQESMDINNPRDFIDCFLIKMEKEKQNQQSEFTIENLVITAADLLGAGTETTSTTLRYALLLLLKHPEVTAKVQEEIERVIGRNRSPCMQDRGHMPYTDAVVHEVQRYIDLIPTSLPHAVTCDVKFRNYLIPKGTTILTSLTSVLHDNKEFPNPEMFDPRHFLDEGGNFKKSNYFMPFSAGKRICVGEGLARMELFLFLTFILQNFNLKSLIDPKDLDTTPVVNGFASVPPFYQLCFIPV

Chain of Dual specificity protein phosphatase 6 (Q64346 whole entry): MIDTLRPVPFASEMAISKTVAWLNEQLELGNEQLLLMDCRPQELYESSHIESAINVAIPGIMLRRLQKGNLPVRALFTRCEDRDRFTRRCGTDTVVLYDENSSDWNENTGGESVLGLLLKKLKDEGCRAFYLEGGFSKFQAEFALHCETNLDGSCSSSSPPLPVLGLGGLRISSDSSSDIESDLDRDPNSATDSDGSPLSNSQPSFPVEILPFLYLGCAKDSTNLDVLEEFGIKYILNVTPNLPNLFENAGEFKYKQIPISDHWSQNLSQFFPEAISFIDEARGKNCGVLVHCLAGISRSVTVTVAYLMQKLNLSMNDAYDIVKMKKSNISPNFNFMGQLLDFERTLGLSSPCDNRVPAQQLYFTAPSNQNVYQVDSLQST

IC50 [1]: > 100 µM (not active)
SMILES: CCCCOc1ccccc1P(=O)(O)CP(=O)(c1ccccc1)c1ccccc1

IC50 (Bcl-2-related protein A1 [2]): > 100 µM (not active) | IC50 (Bcl-2-related protein A1 [3]): > 100 µM (not active)
SMILES: COc1ncccc1-c1nnn(-c2ccc(Cl)nc2)n1

EC50 [4]: > 300 µM (not active) | EC50 [6]: > 300 µM (not active)
SMILES: NC(=O)c1ccccc1N/C=C/C(=O)c1ccc(F)cc1
EC50 [5]: 23 µM (active)

IC50 (Leucine aminopeptidase): 2.01 µM (active) | IC50 (Protein skinhead-1): > 100 µM (inactive) | IC50 (Procathepsin L): > 59.6 µM (not active) | IC50 (Aspartyl aminopeptidase): > 73.5 µM (not active)
SMILES: O=C(CSc1nc(O)cc(O)n1)Nc1ccc2c(c1)CCC2

IC50 (Prothrombin): > 50 µM (not active)
SMILES: COc1ccc(NC(=O)Cc2ccccc2F)cn1

AC50 (Cytochrome P450 2C19): 10 µM (inconclusive)
SMILES: C[C@@]12CCC(=O)C=C1CC[C@H]1[C@H]3CC[C@](O)(C(=O)CO)[C@]3(C)CC[C@@H]12
